Some test systems named below: A549; A498; HCT-116; SF-295; NCI-H522; RXF 393; SK-MEL-28; OVCAR-5; SNB-19; Hs-578T; PC-3; ACHN; KM12; TK-10; MCF7; K562; HCC 2998; NCI-H460.
Assay in all cases: inhibition of tumour cell growth, NCI panel, 48 h

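Five concentrations, 48 hours, 96-well plates. At the GI50, growth is halved.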 Activity calls are given as the source filed them. Cut-off read from the data, not from the text of the source: active = GI50 up to about 1.1 µM and inactive = higher.

As to `CC(C)(C)c1cc(C2NC(=O)NC2=O)cc(C(C)(C)C)c1O` (stereo not drawn), the GI50 was 96.8 µM (inactive) with A549; > 100 µM (inactive) with A498; 27.9 µM (inactive) with HCT-116; 64.4 µM (inactive) in the assay with SF-295; 32.8 µM (inactive) with NCI-H522; 33.3 µM (inactive) in the assay on RXF 393. Also, the GI50 with SK-MEL-28 is 31.7 µM (inactive); with OVCAR-5 it was > 100 µM (inactive); in the assay with SNB-19, > 100 µM (inactive); in the assay with Hs-578T it was 20.5 µM (inactive); with PC-3, 71.9 µM (inactive); in the assay on ACHN, > 100 µM (inactive). Besides, the GI50 is 18.8 µM (inactive) in the assay with KM12, 29 µM (inactive) in the assay with TK-10, 24.7 µM (inactive) in the assay with MCF7 and 33.9 µM (inactive) in the assay with K562.
Take `CCn1ncc(Oc2c(Cl)cc(N)cc2Cl)c(Cl)c1=O`: the GI50 in the assay with HCC 2998 was 34.7 µM (inactive); in the assay on A549, 30.5 µM (inactive); in the assay on A498 it was 47.3 µM (inactive); with HCT-116, 30.4 µM (inactive); with SF-295, 29 µM (inactive); in the assay on RXF 393, 29 µM (inactive). For the same compound, the GI50 with SK-MEL-28 is 51.3 µM (inactive); with OVCAR-5, 43.9 µM (inactive); in the assay with SNB-19, 33.4 µM (inactive); in the assay with Hs-578T, 22.5 µM (inactive); in the assay on PC-3, 35.9 µM (inactive); in the assay on ACHN, 57.9 µM (inactive). The GI50 with KM12 is 34.8 µM (inactive); with NCI-H460, 32.2 µM (inactive); with TK-10 it was 47.2 µM (inactive); with MCF7 it was 38.7 µM (inactive); in the assay on K562, 35.1 µM (inactive).
On to `CCN(C(C)=O)c1cnc(/C=N/NC(N)=S)c2ccccc12`, for which the GI50 in the assay on HCC 2998 was 11 µM (inactive); in the assay with A549, 4.01 µM (inactive); in the assay with A498 it was 19.8 µM (inactive); in the assay on HCT-116, 2.67 µM (inactive); with SF-295, 3.14 µM (inactive); in the assay with NCI-H522, 2.95 µM (inactive). The GI50 is 17.9 µM (inactive) in the assay on RXF 393; > 20 µM (inactive) in the assay on OVCAR-5; 3.49 µM (inactive) in the assay with SNB-19; 80.5 µM (inactive) in the assay on Hs-578T; 4.15 µM (inactive) with PC-3; 1.76 µM (inactive) with ACHN. Moreover, the GI50 in the assay on KM12 was 2.94 µM (inactive); with NCI-H460 it was 1.5 µM (inactive); in the assay on TK-10, 4.59 µM (inactive); with MCF7, 2.81 µM (inactive); with K562 it was 4 µM (inactive).
As for `O=C(Nc1nnc(-c2ccccc2)o1)C(SC(=S)N1CCCCC1)c1ccccc1` (stereo not drawn), the GI50 in the assay with A549 is 17.1 µM (inactive); in the assay on A498, 27.3 µM (inactive); in the assay on HCT-116, 13.4 µM (inactive); in the assay with SF-295, 14.1 µM (inactive); in the assay on NCI-H522 it was 23.5 µM (inactive); in the assay with RXF 393, 26.3 µM (inactive). Further, the GI50 was 24.1 µM (inactive) in the assay on SK-MEL-28; 26.6 µM (inactive) in the assay on OVCAR-5; 32.1 µM (inactive) with SNB-19; 59.8 µM (inactive) in the assay with Hs-578T; 17.5 µM (inactive) in the assay with PC-3; 15.1 µM (inactive) in the assay with ACHN. Further, the GI50 in the assay with KM12 is 22.9 µM (inactive); in the assay with NCI-H460, 7.66 µM (inactive); in the assay on TK-10 it was 56 µM (inactive); in the assay with MCF7, 23.4 µM (inactive); in the assay with K562, 9.55 µM (inactive).
With `N#C/C(=C/n1c(=S)[nH]c2ccccc21)C(N)=O`, the GI50 in the assay on HCC 2998, in the assay on A549, with A498, in the assay on HCT-116, in the assay on SF-295 and with NCI-H522 was > 100 µM (inactive) throughout. The GI50 in the assay with RXF 393, in the assay on SK-MEL-28, in the assay on OVCAR-5, with SNB-19, in the assay on Hs-578T and in the assay with PC-3 was > 100 µM (inactive) in each case. Also, the GI50 in the assay on ACHN, in the assay on KM12, in the assay on NCI-H460, in the assay with MCF7 and with K562 was > 100 µM (inactive) throughout.
Take `CC(=O)c1ccc2c(c1)oc(=O)n2CCN(C)C`: the GI50 in the assay with A498, in the assay with HCT-116, in the assay on SF-295, in the assay on RXF 393, in the assay with SK-MEL-28 and in the assay on OVCAR-5 was > 100 µM (inactive) throughout. For the same compound, the GI50 with Hs-578T is 51.6 µM (inactive); in the assay with PC-3 it was > 100 µM (inactive); with ACHN, > 100 µM (inactive); with KM12, > 100 µM (inactive); in the assay with NCI-H460, > 100 µM (inactive); in the assay on TK-10, > 100 µM (inactive). The GI50 in the assay on MCF7 was > 100 µM (inactive).
Turning to `COC(=O)/C=C(/OC)[C@H](C)[C@H](/C=C/c1csc(-c2csc(C(C)C)n2)n1)OC`, the GI50 was 0.136 µM (active) in the assay on A549; 5.97 µM (inactive) in the assay on A498; 0.284 µM (active) in the assay with HCT-116; 0.0681 µM (active) with SF-295; 1.21 µM (inactive) in the assay with NCI-H522; 1.35 µM (inactive) in the assay with RXF 393. The GI50 was 63.5 µM (inactive) in the assay on SK-MEL-28; > 100 µM (inactive) in the assay with OVCAR-5; > 57.8 µM (inactive) in the assay on Hs-578T; 0.126 µM (active) in the assay on PC-3; 0.124 µM (active) in the assay with ACHN; 1.52 µM (inactive) in the assay with KM12. In addition, the GI50 was 0.0521 µM (active) with NCI-H460, 0.178 µM (active) in the assay with MCF7 and 0.52 µM (active) in the assay with K562.
Regarding `N#Cc1ccc(OCc2ccc3nc(-c4ccccc4)c(Cl)nc3c2)cc1`, the GI50 in the assay on HCC 2998, in the assay with A549, in the assay on A498, in the assay with HCT-116, in the assay on SF-295 and with NCI-H522 was > 100 µM (inactive) throughout. The GI50 in the assay on SK-MEL-28 is > 100 µM (inactive); in the assay on OVCAR-5 it was > 100 µM (inactive); in the assay on SNB-19 it was > 100 µM (inactive); in the assay with Hs-578T, > 100 µM (inactive); in the assay with PC-3, > 100 µM (inactive); in the assay with ACHN it was 43.6 µM (inactive). The GI50 in the assay with KM12 is > 100 µM (inactive); in the assay with NCI-H460, > 100 µM (inactive); in the assay with TK-10, 58.1 µM (inactive); with MCF7, > 100 µM (inactive).
On to `O=C(Nc1nc(C23CC4CC(CC(C4)C2)C3)cs1)c1cc2c(ccc3ccccc32)oc1=O`, for which the GI50 with HCC 2998, in the assay on A549, with A498, in the assay with HCT-116, in the assay with SF-295 and in the assay on NCI-H522 was > 100 µM (inactive) each time. Moreover, the GI50 in the assay on SK-MEL-28, in the assay with OVCAR-5, in the assay with SNB-19, in the assay with Hs-578T, in the assay with PC-3 and in the assay with ACHN was > 100 µM (inactive) in each case. In addition, the GI50 with KM12, with NCI-H460, in the assay with TK-10, in the assay with MCF7 and in the assay with K562 was > 100 µM (inactive) throughout.
For the compound `CCN(CC)CCCC(C)Nc1ccnc2cc3ccccc3cc12` (stereo not drawn), the GI50 is 7.03 µM (inactive) in the assay on A549; 22.6 µM (inactive) in the assay on A498; 5.75 µM (inactive) in the assay on HCT-116; 5.82 µM (inactive) in the assay with SF-295; 10.4 µM (inactive) with NCI-H522; 9.53 µM (inactive) in the assay with RXF 393. Moreover, the GI50 is 21.7 µM (inactive) in the assay with OVCAR-5; 7.53 µM (inactive) in the assay with SNB-19; 36.5 µM (inactive) in the assay on Hs-578T; 12.9 µM (inactive) with PC-3; 3.72 µM (inactive) with ACHN; 4.95 µM (inactive) with KM12. In addition, the GI50 with NCI-H460 was 3.57 µM (inactive); with TK-10, 10.2 µM (inactive); with MCF7, 5.35 µM (inactive); in the assay with K562, 7 µM (inactive).
In the case of `COc1cccc([C@@H]2C/C(=N\NC(=O)C(=O)N[C@@H](C)c3ccccc3)c3ccccc3N2)c1`, the GI50 in the assay with HCC 2998 was > 100 µM (inactive); in the assay with A549, 46.1 µM (inactive); in the assay on A498 it was > 100 µM (inactive); with HCT-116 it was > 100 µM (inactive); in the assay on SF-295 it was 73.1 µM (inactive); with RXF 393 it was 35.3 µM (inactive). In addition, the GI50 is > 100 µM (inactive) with SK-MEL-28; > 100 µM (inactive) with OVCAR-5; 24.6 µM (inactive) with SNB-19; 23.7 µM (inactive) in the assay on Hs-578T; > 100 µM (inactive) in the assay with PC-3; 40.6 µM (inactive) in the assay on ACHN. Moreover, the GI50 in the assay with KM12 was 10.1 µM (inactive); in the assay with TK-10, > 100 µM (inactive); in the assay with MCF7 it was 7.05 µM (inactive); in the assay on K562 it was 32.1 µM (inactive).
Turning to `CC(=O)c1cccc(NC(=O)C(=O)C(c2cnc3ccc([N+](=O)[O-])cc3n2)[N+](=O)[O-])c1` (stereo not drawn), the GI50 with HCC 2998 was 69.8 µM (inactive); in the assay with A498, > 100 µM (inactive); with HCT-116, 58.3 µM (inactive); in the assay on SF-295 it was 66.7 µM (inactive); in the assay on RXF 393 it was 96.6 µM (inactive); with SK-MEL-28, > 100 µM (inactive). For the same compound, the GI50 with OVCAR-5 is > 100 µM (inactive); in the assay with SNB-19 it was > 100 µM (inactive); in the assay with Hs-578T, > 100 µM (inactive); in the assay on PC-3 it was 42.9 µM (inactive); in the assay with ACHN, > 100 µM (inactive); in the assay with KM12 it was 54.1 µM (inactive). Further, the GI50 in the assay with NCI-H460, in the assay with TK-10, with MCF7 and in the assay with K562 was > 100 µM (inactive) each time.

Values taken from ChEMBL document CHEMBL1201862, “PubChem BioAssay data set” (2004).
